The values below are quoted from earlier work in patent US20180051069A1, “COMPOSITIONS AND METHODS FOR TREATING ALLERGIC INFLAMMATION” (THE GENERAL HOSPITAL CORPORATION, priority 2015, published 2018).

The target in one series is T1, Golgi mannosidase II (Homo sapiens, UniProt Q16706).
T1 sequence (Q16706 1-1144): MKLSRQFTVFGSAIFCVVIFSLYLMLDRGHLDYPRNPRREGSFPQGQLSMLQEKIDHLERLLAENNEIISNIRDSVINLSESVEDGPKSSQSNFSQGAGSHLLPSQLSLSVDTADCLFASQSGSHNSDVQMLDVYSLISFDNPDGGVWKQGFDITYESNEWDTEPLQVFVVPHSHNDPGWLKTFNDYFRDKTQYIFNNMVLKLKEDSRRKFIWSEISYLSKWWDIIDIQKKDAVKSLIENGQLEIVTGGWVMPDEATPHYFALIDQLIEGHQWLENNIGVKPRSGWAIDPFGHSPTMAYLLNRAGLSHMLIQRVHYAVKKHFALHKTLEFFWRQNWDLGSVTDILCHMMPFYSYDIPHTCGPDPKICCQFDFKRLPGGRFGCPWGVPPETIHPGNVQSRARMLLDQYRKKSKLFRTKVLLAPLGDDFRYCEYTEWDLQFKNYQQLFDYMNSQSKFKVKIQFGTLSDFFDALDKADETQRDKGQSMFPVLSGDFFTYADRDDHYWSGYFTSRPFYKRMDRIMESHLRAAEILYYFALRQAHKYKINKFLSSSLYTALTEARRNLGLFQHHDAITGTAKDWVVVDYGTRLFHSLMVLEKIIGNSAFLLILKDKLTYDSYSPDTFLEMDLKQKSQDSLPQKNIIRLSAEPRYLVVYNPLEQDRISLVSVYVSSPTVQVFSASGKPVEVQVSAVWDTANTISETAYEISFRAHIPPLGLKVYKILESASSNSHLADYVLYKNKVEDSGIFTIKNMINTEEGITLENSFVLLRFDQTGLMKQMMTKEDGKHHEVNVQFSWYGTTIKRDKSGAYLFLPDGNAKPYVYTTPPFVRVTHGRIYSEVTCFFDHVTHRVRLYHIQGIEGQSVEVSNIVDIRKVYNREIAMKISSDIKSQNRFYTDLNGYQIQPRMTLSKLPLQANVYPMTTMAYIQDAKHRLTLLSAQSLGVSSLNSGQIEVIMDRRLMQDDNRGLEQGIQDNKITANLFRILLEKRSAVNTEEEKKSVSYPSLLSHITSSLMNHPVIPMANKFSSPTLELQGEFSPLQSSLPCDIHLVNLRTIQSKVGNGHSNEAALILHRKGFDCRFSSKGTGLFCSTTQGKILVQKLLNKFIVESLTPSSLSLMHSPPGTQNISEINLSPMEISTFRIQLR

In series [1] the test system is rat epididymal α-mannosidase.
In series [2] the target is alpha-glucosidase amyloglucosidase (Aspergillus niger, UniProt P69328). Particulars: read-out: 50% inhibition.
alpha-glucosidase amyloglucosidase, sequence (P69328 25-640): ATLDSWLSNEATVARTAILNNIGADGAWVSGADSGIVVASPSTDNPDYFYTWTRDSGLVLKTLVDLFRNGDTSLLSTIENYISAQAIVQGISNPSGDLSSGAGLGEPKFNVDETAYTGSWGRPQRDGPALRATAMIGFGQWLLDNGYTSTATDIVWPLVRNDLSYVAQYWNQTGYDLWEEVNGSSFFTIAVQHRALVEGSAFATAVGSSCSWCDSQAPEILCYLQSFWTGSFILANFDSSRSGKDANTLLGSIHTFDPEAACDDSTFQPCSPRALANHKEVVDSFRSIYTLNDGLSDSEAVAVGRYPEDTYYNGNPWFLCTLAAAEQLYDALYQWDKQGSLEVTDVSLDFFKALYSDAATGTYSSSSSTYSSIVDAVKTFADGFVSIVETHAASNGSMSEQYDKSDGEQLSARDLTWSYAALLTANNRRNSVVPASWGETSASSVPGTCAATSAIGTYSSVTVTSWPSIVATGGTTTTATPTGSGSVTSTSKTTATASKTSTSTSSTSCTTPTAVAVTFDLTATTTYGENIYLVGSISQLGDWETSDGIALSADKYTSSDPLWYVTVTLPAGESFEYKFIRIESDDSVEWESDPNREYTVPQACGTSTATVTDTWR
Series [3] concerns alpha- or beta-mannosidase.
Series [4] has as its system alpha- or beta-galactosidase.

A value given as a limit tells only on which side of the number the result lay.

Consider `O[C@H]1[C@H]2[C@H](O)CCCN2C[C@H]1O` [Swainsonine], for which the “effect on mannosidase I” value in the series with mannosidase I is “no effect”. Moreover, the “inhibition of Golgi mannosidase II” value on Golgi mannosidase II was “potent inhibitor”.
As to `CS[C@@H]1[C@@H](N)[C@@H](O)[C@@H](O)[C@H]1O` [Mannostatin A], the “inhibition of rat epididymal α-mannosidase” value in [1] was “reported to be an inhibitor”.
With `O=C1N[C@@H]2[C@@H](O)[C@@H](O)[C@H](O)[C@@H](CO)N2C1=O` [Kifunensine], in the series on cultured mammalian cells (added to cultured mammalian cells), the “concentration causing complete shift of N-linked oligosaccharides from complex chains to Man9(GlcNAc)2 structures” value is ≥ 1 µg/mL. The “effect on mannosidase I” value in the series on mannosidase I is reported as “inhibits”.
With `OC[C@@H]1[C@@H](O)[C@H](O)[C@H]2[C@@H](O)CCN21` [Australine], the IC50 in series [2] was 5.8 µM. Also, the inhibition of beta-glucosidase result in the series on beta-glucosidase is “does not inhibit”. The “inhibition of alpha- or beta-mannosidase” value in series [3] is “does not inhibit”. For the same compound, in series [4], the “inhibition of alpha- or beta-galactosidase” value was “does not inhibit”.
Consider `O[C@H]1[C@H](O)[C@@H](O)CN2CC[C@H](O)[C@H]12` [Castanospermine], for which the “inhibition of alpha-glucosidase activities” value in the series on alpha-glucosidase is “inhibits”.
For the compound `OC[C@H]1NC[C@@H](O)[C@@H](O)[C@@H]1O` [Deoxymannojirimycin], the “effect on synthesis of N-linked oligosaccharides” value in the series on cultured mammalian cells (intact cells) is listed as “blocked the synthesis of complex types of N-linked oligosaccharides”. The “inhibition of rat liver mannosidase I” value in the series with rat liver mannosidase I was “inhibitor”.
